The structures appear in SMILES notation. ≈ marks a conversion by molar mass, not a printed value.

What all share (type): cell-based
Experiment [1] deals with Leishmania donovani strain MHOM/ET/67/L82. Kind of experiment: Leishmaniasis macrophage in vitro screening model. The conditions noted are these: amastigotes in murine macrophages, n=4. How it is done:
The Leishmania donovani strain MHOM/ET/67/L82 obtained from Dr. S. Croft, London) is used. The strain is maintained in the Syrian Golden hamster. Amastigotes are collected from the spleen of an infected hamster Amastigotes are grown in axenic culture at 37° C. in SM medium (Cunningham I., J. […] Primary peritoneal macrophages from NMRI mice are collected 1 day after a macrophage production stimulation with an i.p injection of 2 ml of a 2% potato starch suspension (FLUKA, Switzerland) All cultures and assays are done at 37° C. under an atmosphere of 5% CO2 in air. […] After use the stocks are kept at -20° C. For the assays, the compound is further diluted in serum-free culture medium and finally to the appropriate concentration in complete medium. Assays are performed in sterile 16-well chamber slides (LabTek, Nalgene/Nunc Int.) To each well 100 μl of a murine macrophage suspension (4×10^5/ml) in RPMI 1640 (containing bicarbonate and HEPES) supplemented with 10% heat inactivated fetal bovine serum is added. […] Infected and non-infected macrophages are counted for the control cultures and the ones exposed to the serial drug dilutions. The infection rates are determined. The results are expressed as % reduction in parasite burden compared to control wells, and the IC50 calculated by linear regression analysis. […]

Experiment [2] shares this test system. Nature of the experiment: Leishmania donovani axenic amastigote assay. The conditions noted are these: axenic amastigotes.
Experiment [3] deals with T. b. brucei STIB 950. Nature of the experiment: Trypanosoma brucei whole cell assay, secondary screen STIB 950. The settings on record: STIB950.
Experiment [4] has as its system Trypanosoma brucei gambiense STIB 930. Kind of experiment: Trypanosoma brucei whole cell assay, secondary screen STIB 930.
Protocol: The bloodstream form trypomastigotes of strain b are maintained in MEM medium with Earle's salts supplemented with 25 mM HEPES, 1 g/l additional glucose, 1% MEM non-essential aminoacids (100×), 0.2 mM 2-mercaptoethanol, 2 mM Na-pyruvate, 0.1 mM hypoxanthine, 0.05 mM bathocuproine disulphonic acid, 0.15 mM L-cysteine and 15% heat inactivated pooled human serum.
Assays are performed in 96-well microtiter plates, each well containing 100 μl of culture medium with 8×10^3 bloodstream forms with or without a serial drug dilution. The highest concentration for the test compounds is 90 μg/ml. Seven 3-fold dilutions are used covering a range from 90 μg/ml to 0.123 μg/ml. […]
The test system of experiment [5] is Trypanosoma brucei rhodesiense STIB 900. Nature of the experiment: Trypanosoma brucei whole cell assay, primary screen. The conditions noted are these: read-out: ICo. How it is done:
The bloodstream form trypomastigotes of the strains a and c are maintained in MEM medium with Earle's salts supplemented with 25 mM HEPES, 1 g/l additional glucose, 1% MEM nonessential amino acids (100×), 0.2 mM 2-mercaptoethanol, 2 mM Na-pyruvate, 0.1 mM hypoxanthine and 15% heat inactivated horse serum.
All cultures and assays are conducted at 37° C. under an atmosphere of 5% CO2 in air.
After use the stocks are kept at −20° C. For the assays, the compound is further diluted to the appropriate concentration using complete medium.
Assays are performed in 96-well microtiter plates, each well containing 100 μl of culture medium with 8×10^3 bloodstream forms with or without a serial drug dilution. The highest concentration for the test compounds is 90 μg/ml. Seven 3-fold dilutions are used covering a range from 90 μg/ml to 0.123 μg/ml. Each drug is tested in duplicate and each assay is repeated at least once. […]
10 μl of Alamar Blue (12.5 mg resazurin dissolved in 100 ml distilled water) are now added to each well and the plates incubated for another 2 hours. Then the plates are read with a Spectramax Gemini XS microplate fluorometer (Molecular Devices Cooperation, Sunnyvale, Calif., USA) using an excitation wave length of 536 nm and an emission wave length of 588 nm. Data are analysed using the microplate reader software Softmax Pro (Molecular Devices Cooperation, Sunnyvale, Calif., USA). […]

Consider `CCCCCCCCCCCCCCCCOP(=O)([O-])OCC[N+](C)(C)C` [Miltefosine], for which the values for the IC50 in experiment [1] and in experiment [2] were 0.325 µg/mL (≈ 0.797 µM) and 0.12 µg/mL (≈ 0.294 µM), respectively.

As to `Nc1nc(N)nc(Nc2ccc([As]3SCC(CO)S3)cc2)n1` (centres unmarked) [melarsoprol], the figures for the IC50 in experiment [3], in experiment [4] and in experiment [5] were 2.8 ng/mL, 4.2 ng/mL and 1.6 ng/mL, respectively.

The record behind these values is patent publication US7601702B2, “Dutpase Inhibitors” (Medivir AB, priority 2004, dated 2009).
